Data on one molecule can be found in publication PMC9553667, “Pharmacokinetic Analysis of Diosgenin in Rat Plasma by a UPLC-MS/MS Approach” (Journal of Analytical Methods in Chemistry, 2022).

Like-named read-outs stand apart in the source and are kept apart here.

The format of series [1] is in vitro ADME, rat. The following applies: –20°C for 30 days, 25°C for 8 h, three freeze-thaw cycles, 4°C in an autosampler for 12 h.
The format of series [2] is in vitro ADME, rat. Particulars: n = 6; for Measured concentration, autosampler stability: processed rat plasma, autosampler 4°C for 24 h; for Measured concentration, short-term stability / Measured concentration, freeze-thaw stability / Measured concentration, long-term stability: rat plasma; for Measured concentration, short-term stability: 25°C for 8 h; for Measured concentration, long-term stability: −20°C for 30 days. As to the method: Standard working solutions of diosgenin and IS were prepared by diluting stock solutions (100 μg/ml) with methanol. A series of calibration standards and QC working solutions were serially diluted with methanol from the standard solution. The working solutions were diluted with drug-free rat plasma at concentrations of 0.5, 1, 5, 50, 200, 1000, and 1,500 ng/ml. Similarly, the QC samples were made up at 5, 50, and 1,000 ng/ml, and IS was 42 ng/ml. All samples were immediately stored at −20°C.
QC samples in rat plasma at three concentrations were analyzed by assessing the stability of diosgenin under four conditions. Long-term stability was investigated by assaying QC samples kept at −20°C for 30 days. The short-term stability of QC samples was assessed for 8-h storage at 25°C. Freeze-thaw stability was determined by analyzing QC samples after three freeze-thaw cycles (−40°C to 25°C). Postpreparative stability was evaluated after a 24-h placement of QC samples in an autosampler at 4°C after preparation. When the accuracy and the precision were both within ±15% after the four tests, the stabilities were guaranteed.

Details of series [3]: method as in PMID 23073665, PMID 20671764. Particulars: cited from earlier work.
A further series can be described thus: in vivo. On the set-up: species or system Male Sprague-Dawley rats. Particulars: rat. As to the method:
Liquid chromatography was performed using a UPLC system (Waters Corp., Milford, MA, USA) interfaced to a Q-Trap 5500 triple-quadruple mass spectrometer (AB SCIEX, Beijing, China) equipped with an electrospray ionization (ESI) source, as previously described. The isolation was performed on a Waters ACQUITY UPLC BEH C18 rapid resolution high definition column (2.1 × 50 mm, 1.7 μm) at 35°C. The temperature of the UPLC autosampler was 4°C. The mobile phase was mixed with acetonitrile and water (80 : 20, v/v, containing 0.03% formic acid in water). The flow rate was run at 0.3 ml/min. The injection volume was 2 μl, with a total running time of 5 min.
The positive ion multiple reaction monitoring (MRM) mode was used for quantification analysis in the mass analyzers, with the transitions of m/z 415.2⟶271.2 for diosgenin with fragment or voltage of 71.96 V and 295.2⟶277.1 for the IS with fragment or voltage of 120 V. The collision voltages for diosgenin and IS were 23.03 and 25.92 eV, respectively. The other settings were as follows: capillary voltage, 5.5 kV; source temperature, 500°C; curtain gas, 35 Psi; GS1, 50 Psi; GS2, 50 Psi.
Blank plasma samples were obtained from control Sprague-Dawley rats (n = 6). Briefly, 50 μl of the IS solution and 50 μl of plasma were added to a 0.5-ml Eppendorf tube and vortex mixed for 30 s. Methanol-acetonitrile (250 μl; 50 : 50, v/v) was added to the Eppendorf tube, and then, the sample was vortex mixed for 2 min. After centrifuging at 15,000 rpm for 15 min, the supernatants were injected into the UPLC-MS/MS system.
Male Sprague-Dawley rats (n = 12) weighing 180–220 g were supplied by Beijing Vital River Laboratory Animal Technology Co., Ltd. (Beijing, China; license number SCXK2018-0006). According to the ARRIVE guidelines, all experimental rats were kept under appropriate conditions, including proper humidity, temperature, light, diet, and water. Before starting the experiments, the rats were domesticated for 10 days under laboratory conditions to minimize their suffering. All experimental procedures were performed according to the Animal Care and Use Committee of Chengde Medical University (ethical approval no. CDMULAC-20180410016; Chengde, China). The rats were divided into two groups and were orally administered 100 mg/kg diosgenin and ASD (equivalent to 100 mg/kg diosgenin) suspended in a 0.5% w/v CMC–Na aqueous solution.
The caged rats were fasted (water provided ad libitum) for 12 h before the experiment. Before and after single administration of diosgenin, 0.15 ml blood was collected from the inner canthus under 2.5% isoflurane anesthesia in a heparinized blood collection vessel. The blood collection time points were 0.083, 0.25, 0.5, 0.75, 1, 2, 3, 4, 6, 8, 12, 24, 36, 48, and 72 h. Plasma was obtained after centrifugation for 15 min at 15,000 rpm and then stored at –80°C until analysis.
The pharmacokinetic parameters were calculated using noncompartmental pharmacokinetics data analysis software of DAS 3.0 (Drug and Statistics software, Drug Clinical Research Center, Shanghai University of Traditional Chinese Medicine, Shanghai, China). Relative bioavailability (F) was calculated according to the following formula:(1) F%=AUC0⟶∞diosgenin ASD/AUC0⟶∞diosgenin×100%.

On the set-up of series [4]: method as in PMID 24954725. Particulars: rats; cited from earlier work.
Setting [5] is: male, Sprague-Dawley, po, 100 mg/kg.

Turning to `C[C@@H]1CC[C@@]2(OC1)O[C@H]1C[C@H]3[C@@H]4CC=C5C[C@@H](O)CC[C@]5(C)[C@H]4CC[C@]3(C)[C@H]1[C@@H]2C` [Diosgenin], in series [1], the “Stability in plasma under the storage conditions” value is on record as “remained stable”. Further, in series [2] (indicated 5 ng/ml), the “Measured concentration, autosampler stability” value amounted to 5.32 ± 0.37 ng/mL; the “Measured concentration, short-term stability” value turned out to be 5.41 ± 0.33 ng/mL; the “Measured concentration, long-term stability” value turned out to be 5.99 ± 0.28 ng/mL. Further, in series [2] (indicated 50 ng/ml), the “Measured concentration, autosampler stability” value amounted to 50.59 ± 3.69 ng/mL; the “Measured concentration, short-term stability” value was found to be 50.23 ± 2.56 ng/mL; the “Measured concentration, long-term stability” value was found to be 50.02 ± 3.72 ng/mL. Besides, in series [2] (indicated 1000 ng/ml), the “Measured concentration, autosampler stability” value came out at 1001.01 ± 62.63 ng/mL; the “Measured concentration, short-term stability” value was 1000.88 ± 44.34 ng/mL; the “Measured concentration, long-term stability” value turned out to be 1001.65 ± 42.42 ng/mL. For the same molecule, the “Measured concentration, freeze-thaw stability” value in series [2] (three freeze-thaw cycles (−40°C to 25°C), indicated 5 ng/ml) is 5.98 ± 0.35 ng/mL. In series [2] (three freeze-thaw cycles, indicated 50 ng/ml), the “Measured concentration, freeze-thaw stability” value stood at 51.69 ± 4.36 ng/mL. Besides, the “Measured concentration, freeze-thaw stability” value in series [2] (three freeze-thaw cycles, indicated 1000 ng/ml) came to 1002.9 ± 54.44 ng/mL. Besides, the Aqueous solubility result in series [3] is recorded as “poor aqueous solubility”. For the same molecule, the CL/F in “in vivo” (male, Sprague-Dawley, oral, 100 mg/kg diosgenin or equivalent, mean ± SD, n = 6, read-out: CLz/F (converted)) was 207 mL/min/kg. The Vd/F in “in vivo” (male, Sprague-Dawley, oral, 100 mg/kg diosgenin or equivalent, mean ± SD, n = 6, read-out: Vz/F) came out at 231 ± 161 L/kg. In the series “in vivo” (male, Sprague-Dawley, oral, 100 mg/kg diosgenin or equivalent, mean ± SD, n = 6, read-out: t1/2z (converted)), the half-life was 12.3 ± 3.02 h. In the series “in vivo” (setting [5]), the Cmax (commonly the highest concentration seen after dosing) amounted to 480 ± 121 ng/mL; the MRT last – broadly, the average time that molecules of a dose stay in the body – was determined as 22.8 ± 5.55 h; the Tmax – broadly, the time from dosing to the highest level – is 8.73 ± 5.74 h. In the series “in vivo” (po, 100 mg/kg), the AUC0-t is given as 9,302.27 ± 5,013.38 μg/l∗h and the “AUC0-∞” value is 9,598.01 ± 5,151.91 μg/l∗h. For the same molecule, the Absolute bioavailability entry in series [4] is “approximately 7%”.
